Assay results taken from paper PMC7213079, “Hit Identification of New Potent PqsR Antagonists as Inhibitors of Quorum Sensing in Planktonic and Biofilm Grown Pseudomonas aeruginosa” (Frontiers in Chemistry, 2020).
Entries after “also recorded” stand apart in the source; their conditions may differ.

How the values were obtained:
Assay type in all cases: cell-based, Pseudomonas aeruginosa
PAO1-L mCTX::PpqsA-lux = assay: PpqsA-lux bioreporter assay, strain PAO1-L; conditions: Pseudomonas aeruginosa, PAO1, read-out: IC50 PAO1-L
Protocol: In silico virtual screening was performed on the PqsR ligand binding domain (LBD) crystal structure [PDB: 4JVI; (Ilangovan et al., [2013])] using the University of Nottingham Managed Chemical Compound Collection (MCCC) containing 85,061 compounds. Molecular docking was performed using both the OpenEye docking (OpenEye Scientific Software Inc. (Hawkins et al., [2007]) and Schrödinger Suite for molecular modeling (Friesner et al., [2004]; Halgren et al., [2004]). A cut off value of the docking score function was set to -9.0 and the resulting high scoring compounds were further examined (Friesner et al., [2004]; Halgren et al., [2004]). This gave a library of around 500 diverse molecules that were evaluated using in vitro screening in a P. aeruginosa PAO1-L mCTX::PPqsA-lux reporter assay (Diggle et al., [2011]).
To inform the structural variation of 7, crystal structures with the endogenous ligand [4-hydroxy-2-heptylquinoline (NHQ)] and the inhibitor M64 were used (Ilangovan et al., [2013]; Kitao et al., [2018]). The PqsR LBD is dominated by lipophilic interactions, therefore the current SAR exploration mainly focused on varying the aromatic tail substituents and examining the effect of 8-position substitution. The rationale for these modifications was primarily based on molecular docking studies that provided insights into the mode of binding of 7 and approaches intended to improve potency. The substituent at the para- position of the aromatic ring appeared to be crucial for biological activity due to the vital π-π stacking interaction of this group with Tyr^258. […] These strains emit light upon activation of PqsR by the endogenous production of these signal molecules. […] The results of the SAR in this assay highlight the importance of testing any prospective anti-virulence strategy on multiple genetically distinct P. aeruginosa strains as a means to reduce the chance of failure at both pre-clinical and clinical stages (Freschi et al., [2015]).
PAO1-L Wild type PAO1, Lausanne subline. B.
PAO1-L mCTX::PpqsA- PAO1-L with chromosomal mini-CTX::PpqsA-lux (Soukarieh lux insertion; TcR et al., 2018) […]
mini-CTX::PpqsA-lux R6K-based mini-CTX suicide plasmid for the (Diggle et chromosomal insertion of a PpqsA-lux al., 2007) transcriptional reporter fusion; TcR
Biosensor reporter assay:
Strains PA14 mCTX::PpqsA-lux and PAO1-L mCTX::PpqsA-lux were constructed using plasmid mini-CTX::PpqsA-lux as previously described (Diggle et al., 2007) and the assay was performed according to published procedures (Fletcher et al., 2007). For screening, the compounds were tested at 10 µM concentration which was prepared from 10 mM stock in DMSO. […]

PAO1-L = assay: AQ (HHQ, PQS) quantification by LC-MS/MS in planktonic cultures, PAO1-L; conditions: 3 x IC50
Protocol: Since PqsR controls expression of the pqsABCDE operon encoding the enzymes required for different stages of AQ biosynthesis, quantification of HHQ, and PQS provides a direct measurement for inhibition of the biosynthetic pathway. Compound 40 was evaluated for its effect on AQ biosynthesis at a concentration three times the corresponding IC50 values for PAO1-L and PA14.
Figure 5 Effect of compound 40 on AQ production: Quantification of AQ concentrations after treatment with the PqsR inhibitor 40 at 3x IC50 value for PAO1-L and PA14 each strain. The graph represents the average of three independent experiments carried out in triplicate (n = 9) for both strains.
For each test sample, 100µl of sterile filtered supernatant (the same preparation as for pyocyanin) was spiked with 10µl of an internal standard solution (10µM d4-PQS in MeOH), and diluted with water to a total volume of 500µl. […]
screening of the LC eluent for specific AQ analytes. Where chromatographic peaks for HHQ and PQS were detected, a peak area was determined and analyte peak area/internal standard peak area calculated.
AQ quantification in biofilm cultures: […]
For this experiment, the P. aeruginosa PAO1-L strain and M9 minimal medi um were used. […] The supernatant was col lected and the AQ extraction and quantification were performed following the LC MS/MS protocol described above . […]

PAO1-L biofilms = assay: Biofilm viability assay (LIVE/DEAD BacLight, CLSM); conditions: 6 and 24 h
Protocol: PAO1-L biofilms were established for 2 days before challenging with these treatments for 6 and 24 h followed by Live/Dead staining.
Figure 7 Bar chart showing PAO1-L biofilm viability quantified after treatment with different conditions for 6 or 24 h.
Mature pre-established P. aeruginosa PAO1-L biofilms were grown to assess the effects of co-
For these assays, PAO1-L biofilms were grown on round glass coverslips (8 mm, #1.5 thickness) under flow conditions (20 rpm) in FAB containing 10
mM glucose medium inoculated with a diluted (OD600nm = 0.01) bacterial suspension from overnight
cultures in LB. Biofilms were cultivated at 30°C for 2 days with medium replacement every day.

For `Cn1c2ccccc2c2nnc(SCC(=O)Nc3ccc(Oc4ccccn4)cc3)nc21` [Compound 40, 2-((5-Methyl-5H-[1,2,4]triazino[5,6-b]indol-3-yl)thio)-N-(4-(pyridin-2-yloxy)phenyl)acetamide], the IC50 (PAO1-L mCTX::PpqsA-lux) was 250 ± 120 nM, the “production of HHQ and PQS” value (PAO1-L) was “substantially reduce” and the biofilm viability (PAO1-L biofilms; pre-established PAO1-L biofilms (48 h), 40 at 10 μM) was “growth of the community increased; also recorded: slight increase in viability”. For the same molecule, the “biofilm killing in combination with CIP” value (PAO1-L biofilms; pre-established PAO1-L biofilms, 40 10 μM combined with ciprofloxacin 60 μg/mL) was “did not result in an enhanced biofilm killing”.
